Source: patent publication US12473324B2, “Triazine-based amphiphilic compound and use thereof” (INDUSTRY-UNIVERSITY COOPERATION FOUNDATION HANYANG …, priority 2019, dated 2025)

Columns and labels:
[1] = Critical micelle concentration (CMC) by fluorescent dye diphenylhexatriene (DPH); type: physicochemical; details: DPH fluorescence
Procedure: A method of measuring the CMC is not particularly limited, but a method widely known in the art may be used, and for example, the CMC may be measured by a fluorescent staining method using diphenylhexatriene (DPH).
(§1) Specifically, the critical micelle concentrations (CMCs) were measured using a fluorescent dye, diphenylhexatriene (DPH), and the hydrodynamic radii (Rh) of micelles formed by each preparation (1.0 wt %) were determined by a dynamic light scattering (DLS) experiment. The measured results are shown in Table 1 compared to DDM which is an existing amphiphilic molecule (detergent).

[2] = Hydrodynamic radius (Rh) of micelles by dynamic light scattering (DLS); type: physicochemical; details: 1.0 wt % detergent
Procedure: A method of measuring the radius of micelle is not particularly limited, but a method widely known in the art may be used, and for example, the radius of micelle may be measured using a dynamic light scattering (DLS) experiment.
as §1

[3] = Solubility of detergent (Table 1); type: physicochemical
[4] = target: human β2 adrenergic receptor (β2AR) (Homo sapiens, UniProt P07550); assay: β2AR stability: [3H]-dihydroalprenolol (DHA) ligand binding assay; details: CMC+0.2 wt %, room temperature, 6 days, [3H]-DHA
Procedure: Experiments were performed to measure the structural stability of the human β2 adrenergic receptor (β2AR) and G-protein-coupled receptor (GPCR) by TSMs, TTGs and TEMs. That is, a receptor purified by DDM was subjected to amphiphilic molecular exchange when diluted with a buffer solution containing only each of TSMs, TTGs and TEMs without cholesteryl hemisuccinate (CHS) or a buffer solution containing CHS and DDM. The final concentration of the amphiphilic molecule was CMC+0.2 wt %, and the ligand binding properties of the receptor were measured by binding of [^3H]-dihydroalprenolol ([^3H]-DHA). Specifically, the following method was used for a radioligand binding test. β2AR was purified using 0.1% DDM (D. M. Rosenbaum et al., Science, 2007, 318, 1266-1273.) and finally concentrated to about 10 mg/ml (about 200 μM). A master binding mixture containing 10 nM [^3H]-dihydroalprenolol (DHA) supplemented with 0.5 mg/ml BSA in 0.2% amphiphilic compounds (DDM, TSMs, TTGs or TEMs) was prepared using β2AR purified with DDM. Receptors purified with DDM, TSMs, TTGs or TEMs were incubated with 10 nM [^3H]-DHA at room temperature for 6 days. The mixture was loaded onto a G-50 column and a flow through was collected with 1 ml of a binding buffer (20 mM HEPES supplemented with 0.5 mg/ml BSA and 20×CMC each amphiphilic compound, pH 7.5, 100 mM NaCl), and filled with 15 ml of a scintillation fluid. Receptor-bound [^3H]-DHA was measured by a scintillation counter (Beckman). The binding of [^3H]-DHA is shown as a column graph.

μ-opioid receptor (MOR) [5] = target: T1, μ-opioid receptor (MOR) (Mus musculus, UniProt P42866); assay: MOR thermal stability test (CPM dye, melting point Tm); type: biochemical; details: 0.5 wt % compound, CPM fluorescence, 20° C. to 65° C.
Procedure: An N-[4-(7-diethylamino-4-methyl-3-coumarinyl)phenyl]maleimide (CPM) dye dissolved in DMSO (3 mg/ml) was diluted 40× in a buffer including 20 mM HEPES pH 7.5 and 150 mM NaCl. […] After 1 hour at room temperature, a compound was prepared at a final concentration of 0.5 wt % by diluting the receptor solution 2× in 20 mM HEPES pH 7.5, 150 mM NaCl. After […] of the diluted CPM dye was added thereto, the receptor stability of different compounds was measured by recording the fluorescence spectra (excitation 387 nm) every 5° C. from 20° C. to 65° C. while culturing at each temperature for 2 minutes. The melting point (Tm) was calculated by plotting the read value at 470 nm and fitting a non-linear regression curve using GraphPad Prism.

μ-opioid receptor (MOR) [6] = target: T1, μ-opioid receptor (MOR); details: LMNG not among the compounds of the described test; cited from earlier work
[7] = system: leucine transporter (LeuT); assay: LeuT structural stability: [3H]-Leu binding by scintillation proximity assay (SPA); type: biochemical, Aquifex aeolicus; details: CMC+0.04 wt % or CMC+0.2 wt %, room temperature, 13-day incubation, [3H]-Leu SPA
Procedure: Experiments were performed to measure the structural stability of the LeuT protein by TSMs, TTGs and TEMs. Each amphiphilic compound was used at a concentration of (a) CMC+0.04 wt % or (b) CMC+0.2 wt %, and the substrate binding properties of LeuT were measured using [^3H]-Leu via scintillation proximity assay (SPA). The measurement was performed at regular intervals over the course of a 13-day and 12-day incubation at room temperature, respectively.
Specifically, a wild-type leucine transporter (LeuT) derived from the thermophilic bacterium Aquifex aeolicus was purified by a previously described method (Nature 1998, 392, 353-358 by G. Deckert et al.). LeuT was expressed in E. coli C41 (DE3) transformed with pET16b encoding the C-terminal 8×His-tagged transporter (expression plasmids were provided from Dr E. Gouaux, Vollum Institute, Portland, Oregon, USA). In summary, after a bacterial membrane was isolated and solubilized in 1 wt % DDM, the protein was bound to Ni^2+-NTA resin (Life Technologies, Denmark), and eluted in 20 mM Tris-HCl (pH 8.0), 1 mM NaCl, 199 mM KCl, 0.05% (w/v) DDM and 300 mM imidazole. Then, the purified LeuT (0.5 mg/ml) was diluted with buffers supplemented with TSMs, TTGs, TEMs or DDM at a final concentration of CMC+0.04% (w/v) or CMC+0.2% (w/v) except for DDM and imidazole in the equivalent buffer described above. Protein samples were incubated at room temperature for 13 days, centrifuged at a specified time, and protein properties were confirmed by measuring [^3H]-Leucine binding ability using SPA. SPA was performed with 5 μL of each protein sample in a buffer containing 450 mM NaCl and each of TSMs and TEMs (or DDM). The SPA reaction was performed in the presence of 20 nM [^3H]-Leucine and 1.25 mg/ml copper chelate (His-Tag) YSi beads (PerkinElmer, Denmark). Overall [^3H]-Leucine coupling to each sample was measured using a MicroBeta liquid scintillation counter (Perkin Elmer).

[8] = target: T2, Salmonella typhimurium melibiose permease (MelBSt) (Salmonella typhimurium, UniProt P30878); assay: MelB extraction and thermal solubilization stability (SDS-PAGE, Western blotting); type: biochemical; details: 1.5 wt % detergent, 90 minutes
T2 construct: made in house; host or cells: E. coli DW2 cells
Procedure: Experiments were performed to measure the structural stability of Salmonella typhimurium melibiose permease (MelBSt) protein by TSMs, TTGs and TEMs. After the MelB protein was extracted from the membrane using TSMs, TTGs, TEMs or DDM, the amount and structure of the extracted protein were analyzed by SDS-PAGE and Western blotting. The concentration of the amphiphilic compound used was 1.5 wt %, the protein was extracted at 0° C. for 90 minutes and then the extracted protein was incubated at three high temperatures (45, 55, and 65° C.) for an additional 90 minutes. By measuring the amount of protein remaining in a dissolved state in an aqueous solution of the extracted protein and the heat-treated protein, we tried to evaluate the performance of both the protein extraction efficiency and stabilization ability of the compound at the same time. […]
Specifically, Salmonella typhimurium melibiose permease (MelBSt) having a 10-His tag at the C-terminus was expressed in E. coli DW2 cells (βmelB and βlacZY) using a plasmid pK95βAHB/WT MelBSt/CH10. […] MelBSt was measured by an ImageQuant LAS 4000 Biomolecular Imager (GE Health Care Lifer Science) using a SuperSignal West Pico chemiluminescent substrate.

BOR1-GFP fusion protein = assay: AtBOR1 thermal stability, fluorescence size exclusion chromatography (FSEC); details: 1% detergent, heated at 47° C. for 10 minutes
Procedure: Fluorescence size exclusion chromatography (FSEC): BOR1 of Arabidopsis thaliana was expressed in Saccharomyces cerevisiae FGY217 cells as a fusion protein having a C-terminal GFP tag. The cells were grown in a URA medium supplemented with 0.1% glucose. Protein expression was induced by adding 2% galactose, and then the cells were cultured at 20° C. for 18 hours as previously described. The cells were collected and used to prepare a membrane. The membrane including the BOR1-GFP fusion protein was diluted as follows. […] Samples were cultured while shaking at 4° C. for 1 hour, and then insoluble materials were removed by centrifugation at 14,000 g and 4° C. for 1 hour. A supernatant including the solubilized protein sample was heated at 47° C. for 10 minutes. After additional centrifugation to remove large aggregates, a 200 μl aliquot of the sample was injected into a Superose 6 10/300 column equilibrated with 20 mm Tris (pH 7.5), 150 mm NaCl and 0.03% DDM. The GFP fluorescence of each fraction was read using an excitation wavelength of 470 nm and an emission wavelength of 512 nm.

AtBOR1 = AtBOR1 (Arabidopsis thaliana, UniProt Q8VYR7); assay: AtBOR1 thermal denaturation, CPM assay; type: biochemical; details: CMC+0.04 wt %, 40° C., 120 minutes
Procedure: CPM assay: AtBOR1 was concentrated to 10 mg/ml in a buffer (20 mM Tris-HCl (pH 7.5), 150 mM NaCl, 0.03% DDM) with a 100 kDa MWCO centrifugal filter, stored at −80° C. and thawed immediately prior to thermal stability analysis. […] A 7-diethylamino-3-(4′-maleimidylphenyl)-4-methylcoumarin (CPM) dye (Invitrogen) was dissolved in DMSO at 4 mg/ml, and was diluted 1:100 with a buffer (150 mM NaCl supplemented with 20 mM Tris-HCl (pH 7.5) and 0.03% DDM). After 3 μL of the CPM dye was added to each well in the dark, the plate was covered with a transparent lid and the cells were cultured at 40° C. for 120 minutes. Fluorescence emission was monitored every 5 minutes using SpectraMax M2 (Molecular Devices) with a […] of 387 nm and an emission wavelength of 463 nm. Fluorescence readings were normalized under the most unstable conditions to calculate the percentage of proteins that were relatively unfolded. Data was analyzed as a single exponential decay curve using GraphPad Prism 6.

T1 sequence (P42866 whole entry): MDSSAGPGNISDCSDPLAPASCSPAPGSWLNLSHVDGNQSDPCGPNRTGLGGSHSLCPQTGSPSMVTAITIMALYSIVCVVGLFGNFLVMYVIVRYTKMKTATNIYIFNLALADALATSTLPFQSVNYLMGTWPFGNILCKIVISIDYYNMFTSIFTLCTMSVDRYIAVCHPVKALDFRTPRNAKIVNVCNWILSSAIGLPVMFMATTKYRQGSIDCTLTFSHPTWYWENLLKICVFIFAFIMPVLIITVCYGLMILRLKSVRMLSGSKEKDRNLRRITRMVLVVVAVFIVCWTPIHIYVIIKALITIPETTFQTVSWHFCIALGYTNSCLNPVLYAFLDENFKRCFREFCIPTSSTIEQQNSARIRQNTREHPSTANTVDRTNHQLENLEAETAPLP
Chain of human β2 adrenergic receptor (β2AR) (P07550 whole entry): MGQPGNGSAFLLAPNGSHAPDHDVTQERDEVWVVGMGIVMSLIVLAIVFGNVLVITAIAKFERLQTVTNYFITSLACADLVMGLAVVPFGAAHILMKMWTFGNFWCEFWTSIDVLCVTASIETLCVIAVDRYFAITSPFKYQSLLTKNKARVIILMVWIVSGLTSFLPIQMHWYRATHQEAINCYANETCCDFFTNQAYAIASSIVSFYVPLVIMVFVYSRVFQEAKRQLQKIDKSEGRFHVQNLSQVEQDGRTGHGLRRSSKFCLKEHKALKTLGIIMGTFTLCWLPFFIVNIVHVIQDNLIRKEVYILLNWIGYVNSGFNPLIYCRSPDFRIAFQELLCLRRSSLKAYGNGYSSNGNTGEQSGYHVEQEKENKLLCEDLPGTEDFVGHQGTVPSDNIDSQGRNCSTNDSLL
T2 sequence (P30878 whole entry): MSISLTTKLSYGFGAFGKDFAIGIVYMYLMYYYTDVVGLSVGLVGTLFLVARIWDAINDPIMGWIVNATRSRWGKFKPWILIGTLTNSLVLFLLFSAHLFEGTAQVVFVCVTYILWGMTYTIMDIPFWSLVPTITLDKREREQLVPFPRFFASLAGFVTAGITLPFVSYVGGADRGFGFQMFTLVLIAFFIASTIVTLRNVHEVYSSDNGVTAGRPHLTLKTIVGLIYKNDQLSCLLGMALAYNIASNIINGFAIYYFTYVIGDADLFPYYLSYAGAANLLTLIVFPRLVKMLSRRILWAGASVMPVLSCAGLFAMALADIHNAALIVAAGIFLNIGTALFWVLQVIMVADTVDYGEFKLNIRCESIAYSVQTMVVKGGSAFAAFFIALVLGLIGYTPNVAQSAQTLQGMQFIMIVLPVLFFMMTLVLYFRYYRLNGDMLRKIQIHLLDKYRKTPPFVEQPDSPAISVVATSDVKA
Chain of AtBOR1 (Q8VYR7 whole entry): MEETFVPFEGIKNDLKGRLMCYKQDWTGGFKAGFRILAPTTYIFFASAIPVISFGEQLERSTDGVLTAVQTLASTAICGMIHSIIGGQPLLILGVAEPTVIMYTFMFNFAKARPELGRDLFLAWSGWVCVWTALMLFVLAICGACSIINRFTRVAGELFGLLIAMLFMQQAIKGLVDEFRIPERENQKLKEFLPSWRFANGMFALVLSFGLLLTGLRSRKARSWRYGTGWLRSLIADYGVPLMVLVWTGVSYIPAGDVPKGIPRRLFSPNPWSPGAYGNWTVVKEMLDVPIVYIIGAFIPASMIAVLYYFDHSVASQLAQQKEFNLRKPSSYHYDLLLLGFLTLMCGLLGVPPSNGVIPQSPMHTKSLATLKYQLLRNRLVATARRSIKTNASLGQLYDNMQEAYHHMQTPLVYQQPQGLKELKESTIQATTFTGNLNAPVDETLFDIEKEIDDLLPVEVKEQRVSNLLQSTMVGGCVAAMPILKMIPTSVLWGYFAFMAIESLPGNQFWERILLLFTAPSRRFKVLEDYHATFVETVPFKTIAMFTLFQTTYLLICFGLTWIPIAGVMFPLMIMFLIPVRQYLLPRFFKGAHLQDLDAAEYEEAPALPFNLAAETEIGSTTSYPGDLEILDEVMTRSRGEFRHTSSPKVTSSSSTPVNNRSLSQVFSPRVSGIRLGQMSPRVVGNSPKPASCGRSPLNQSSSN

Row | Compound | CMC [1] [mM] | Rh (nm) [2] [nm] | solubility [3] [%] | β2AR long-term ligand binding retention [4] | MOR melting point (Tm) (μ-opioid receptor (MOR) [5]) [°C] | MOR melting point (Tm) of LMNG, comparison value (μ-opioid receptor (MOR) [6]) [°C] | LeuT substrate binding properties over incubation [7] | MelB protein extraction efficiency at 0° C. [8] | AtBOR1 thermal stability by FSEC (protein peak vs aggregation peak) (BOR1-GFP fusion protein) | ability to preserve AtBOR1 in the folded state (CPM) (AtBOR1)
1 | CCCCCCCCCCOc1nc(NC(CO[C@@H]2O[C@H](CO)[C@@H](O[C@H]3O[C@H](CO)[C@@H](O)[C@H](O)[C@H]3O)[C@H](O)[C@H]2O)CO[C@@H]2O[C@H](CO)[C@@H](O[C@H]3O[C@H](CO)[C@@H](O)[C@H](O)[C@H]3O)[C@H](O)[C@H]2O)nc(OCCCCCCCCCC)n1 [TSM-E10] | ~0.004 | 8.7 ± 0.7 | ~5 | better in maintaining the ligand binding ability of the receptor than DDM | 48.9 | – | – | – | – | –
2 | CCCCCCCCCCC(CCCCCCCCCC)(CO[C@@H]1O[C@H](CO)[C@@H](O[C@H]2O[C@H](CO)[C@@H](O)[C@H](O)[C@H]2O)[C@H](O)[C@H]1O)CO[C@@H]1O[C@H](CO)[C@@H](O[C@H]2O[C@H](CO)[C@@H](O)[C@H](O)[C@H]2O)[C@H](O)[C@H]1O [LMNG] | – | – | – | – | – | 38.3 | – | – | – | –
3 | CCCCCCCCCCCCO[C@@H]1O[C@H](CO)[C@@H](O[C@H]2O[C@H](CO)[C@@H](O)[C@H](O)[C@H]2O)[C@H](O)[C@H]1O [DDM, n-dodecyl-β-D-maltopyranoside, reference compound] | ~0.17 | 3.4 ± 0.03 | ~10 | – | – | – | high initial activity, but the substrate binding ability sharply decreased with the passage of time | high MelB protein extraction efficiency | significant reduction in the original homogeneous protein peak | –
4 | CCCCCCCCCCOc1nc(OCCCCCCCCCC)nc(N(CCO[C@@H]2O[C@H](CO)[C@@H](O[C@H]3O[C@H](CO)[C@@H](O)[C@H](O)[C@H]3O)[C@H](O)[C@H]2O)CCO[C@@H]2O[C@H](CO)[C@@H](O[C@H]3O[C@H](CO)[C@@H](O)[C@H](O)[C@H]3O)[C@H](O)[C@H]2O)n1 [TEM-E10] | ~0.005 | 4.5 ± 0.1 | ~5 | – | 48.0 | – | best substrate binding activity | – | highly effective in maintaining the initial state of the protein | best performance
